Patent publication US20080269179A1, “Use of Megestrol Acetate for the Treatment of Obstructive Pulmonary Diseases” (priority 2005, published 2008)

Legend:
[1] = test system: rat myocardial infarct model; experiment: Mortality / survival in rat myocardial infarct model of heart failure; format: in vivo, rats
Protocol: (§1) In another study, a similar rat myocardial infarct model as above was used in order to assess the therapeutic potential of MA in heart failure.
(§2) Methods: From day 14 after surgery (LAD occlusion), rats received frusemide. On day 42, rats were randomized to receive 26 weeks treatment with placebo (PL: n=38), ramipril (n=38, 1 mg/kg/d), the standard MA formulation (MA-I: n=37) or a new nanocristal MA formulation (MA-II: n=40, both 100 mg/kg/d) until sacrifice, Cardiac function was assessed using echocardiography. Additionally, body composition was analyzed boy NMR-scanning, and in a subgroup cardiac function was assessed by MRI scanning and invasive hemodynamics.

[2] = test system: lung of infarction surgery rats; experiment: Histopathology of the lungs in rat infarct model; format: in vivo, Male Wistar-rats
Protocol: (§3) An animal study was carried out, wherein a ligation of the left coronary artery was performed in 140 animals. For control 20 animals were operated without coronary ligature (sham-surgery). Two weeks after surgery, therapy was started. Therefore, the animals were treated with a diuretic (furosemide, in average 10 per kg in drinking water). After six weeks double-blind randomised therapy with either placebo, old or new megestrol acetate (from day 42 on using gavage, 100 mg per kg) or ACE-inhibitor (Ramipril®, 1 mg per kg per day) was started. The infarct groups consisted of 38 animal each for Ramipril® and placebo, 37 for MA-1 and 40 for MA-II, as well as 5 animals per sham group. During the therapy animals were weighed twice a week. On day 224 after surgery animals were sacrificed and the lung was analyzed regarding weight and histopathology.
(§4) The animals underwent surgical treatment at a weight of about 210-220 g. In order to produce a heart insufficiency the inventors performed the surgical treatment in accordance with an infarction model that was already used in several prior studies. The heart infarction is produced according to a slightly modified method described by Selye et al. [Selye H, Bajusz E, Grassos S, Mendel P. Simple techniques for the surgical occlusion of coronary vessels in the rat. Angiology 1960; 11: 398-407] by ligation of the LAD.
(§5) Each rat was anaesthetised by i.p. chloralhydrate (Merck, Darmstadt, Germany) and was subsequently incubated with a PE-catheter (1.2 mm diameter) and respirated using a Rodent-respirator V5K6 (NarcoBio Systems, Houston, Tex., USA). During the whole operation an ECG was performed as control. The thorax was opened, the heart was prepared and a ligature using Ethibond-suture material 7/0 (Ethicon GmbH Norderstedt, Germany) was made in position of the left coronary artery (LAD). Since the coronary arteries during this process can not be viewed by the naked eye, the orientation occurred anatomically based on the position of the heart and the visible coronary veins. The success of the infarction could be visually verified based on the occurring paleness, cyanosis and mobility distortion. Subsequently, the thorax was closed. The respiration was ended, once a stable ECG was reached. 20 rats were used as control animals and were surgically treated in the same manner as the infarction animals. No coronary ligature was introduced in these animals (sham-surgery).
After the surgery, the animals were controlled and the weight was analysed twice a week during the whole study. From day 14 on, the animals received furosemide, accompanied from day 42 on with either placebo, ACE-inhibitor, MA-I or MA-TI. On day […] post-surgery the animals were randomised and segregated into the respective groups. During therapy animals were weighted twice a week and on day 224 post-surgery animals were sacrificed to analyze organs.
MA-I, MA-II, ACE-inhibitor (Ramipril®) or control substances were administered to the animals via gavage. Depending on the time of surgery, the animals were gavaged stating from week six after the in infarction surgery once a day, whereby the amount of gavage was adjusted to the weight (100 mg MA-I/kg body weight per day, 1 ml solution contains 40 mg MA-I or MA-II or placebo, respectively).
In the 32st week post-surgery, the surviving animals were anaesthetised using chloralhydrate i.p. […] body weight (Sigma-Aldrich Chemie GmbH, Deisenhofen, Germany). Following the preparation of the subscapular brown fatty tissue, lapratomisation was performed and blood was drawn from the aorta abdominalis into EDTA-flushed 10 ml syringes (Roth, Karlsruhe, Germany) and added to pre-chilled 12 ml-tubes (Sarstedt, Nümbrecht, Germany). The following parts were removed completely or partially: lung, heart, liver, kidneys, renal glands, inguinal fatty tissue, epididymal fatty tissue, gastrocnemius, and brain. […]

[3] = test system: lung of infarction surgery rats; experiment: Lung wet weight and amount of liquid in the lung in rat infarct model; format: in vivo, Male Wistar-rats
Protocol: as §3
The animals underwent surgical treatment at a weight of about 210-220 g. In order to produce a heart insufficiency the inventors performed the surgical treatment in accordance with an infarction model that was already used in several prior studies. […]
(§6) After the surgery, the animals were controlled and the weight was analysed twice a week during the whole study. […]

[4] = test system: rat myocardial infarct model; experiment: Cardiac function (echocardiography) in rat myocardial infarct model; format: in vivo, rats; conditions: 26 weeks treatment
Protocol: as §1, §2

[5] = Weight determinations in rat infarct model of chronic heart insufficiency; format: in vivo, Male Wistar-rats; conditions: day 224 after surgery
Protocol: as §3
Male Wistar-rats (Dimed GmbH, Schönwalde, Germany) were held in an environment controlled animal facility having a constant temperature of 23° C. in a 12 hour day-night-cycle.
as §4
as §5, with “The respiration was ended, once a stable ECG was reached. 20 rats were used as control animals and were surgically treated in the same manner as the infarction animals. No coronary ligature was introduced in these animals (sham-surgery).” left out
as §6
During the progression of both studies; the animals were weight-determined twice a week, starting from the date of surgery (laboratory balance model CS2000. Ohaus Corporation, Pine Brook, N.J., USA). The results were calculated corresponding to the post-surgical day of the respective animal. […]

[6] = Body weight, body composition (NMR-scanning) and tibia length in rat myocardial infarct model; format: in vivo, rats; conditions: 26 weeks treatment
Protocol: as §1, §2

[7] = infarct animals, around the great respiratory tracts, day 224
[8] = infarct animals, great respiratory tracts, day 224

17-α-acetoxy-6-methylpregna-4,6diene-3,20-dione [Megestrol acetate]
survival in infarction surgery rats ([1]; in comparison to placebo): significantly improved the survival
inflammation and mucus goblet cells of the lung (histopathology, in words) ([2]; infarct rats, vs placebo and Ramipril groups): a reduction in the number of mucus goblet cells and a reduced inflammation of the lung

CCOC(=O)[C@H](CCc1ccccc1)N[C@@H](C)C(=O)N1[C@H](C(=O)O)C[C@@H]2CCC[C@@H]21 [Ramipril]
Mortality ([1]; 26 weeks treatment from day 42, MA 100 mg/kg/d, ramipril 1 mg/kg/d): 13%
average weight of the liquid in the lung [3]: 2396 mg
average wet weight of the lung [3]: 3103 ± 281 mg
CO/BW [4]: 178 ± 8^$ ml/min/kg
EF [4]: 40 ± 2%
Inflammation: number of animals graded little [2, 7]: 1
Inflammation: number of animals graded medium [2, 7]: 2
Inflammation: number of animals graded strong [2, 7]: 2
Inflammation: number of animals graded very strong [2, 7]: 18
Mucus goblet cells: number of animals graded medium [2, 8]: 7
Mucus goblet cells: number of animals graded strong [2, 8]: 6
Mucus goblet cells: number of animals graded very strong [2, 8]: 10
Emphysema: number of animals graded little ([2]; infarct animals, lung, day 224): 3
Emphysema: number of animals graded medium ([2]; infarct animals, lung, day 224): 6
Emphysema: number of animals graded none ([2]; infarct animals, lung, day 224): 8
Emphysema: number of animals graded strong ([2]; infarct animals, lung, day 224): 4
Emphysema: number of animals graded very strong ([2]; infarct animals, lung, day 224): 2
Fibrosis: number of animals graded little ([2]; infarct animals, lung, day 224): 5
Fibrosis: number of animals graded medium ([2]; infarct animals, lung, day 224): 4
Fibrosis: number of animals graded none ([2]; infarct animals, lung, day 224): 12
Fibrosis: number of animals graded strong ([2]; infarct animals, lung, day 224): 2
Weight of animals normalised to tibia length at the end of the study (mean) ([5]; infarct animals): 133.2 g/cm tibia
Weight of animals at the end of the study (mean) ([5]; infarct animals, gavage from day 42, MA 100 mg/kg/d, ramipril 1 mg/kg/d): 575.0 g
Weight of animals at the end of the study (mean) ([5]; sham-surgery animals): 567.2 g
Weight of animals normalised to tibia length at the end of the study (mean) ([5]; sham-surgery animals): 135.0 g/cm tibia
Body weight, end of study ([6]; MA 100 mg/kg/d, ramipril 1 mg/kg/d, in g): 575 ± 8
Fat/tibia ([6]; NMR-scanning): 45.3 ± 5.9 g/cm
Lean/tibia ([6]; NMR-scanning): 83.2 ± 2.5 g/cm
tibia length ([6]; retarded growth): 4.3 cm
